Holding throughout (format): in vivo
Experiment [1] has as its system Lucilia cuprina. In words: Lucilia cuprina test. The note with it: 48 h, application rate 100 ppm, L1 larvae, kill after 2 days, read-out: efficacy. The procedure: Solvent: dimethyl sulfoxide To produce a suitable active ingredient formulation, 10 mg of active ingredient are mixed with 0.5 ml of dimethyl sulfoxide, and the concentrate is diluted with water to the desired concentration. About 20 L1 larvae of the Australian sheep blowfly (Lucilia cuprina) are transferred into a test vessel containing minced horsemeat and the active ingredient formulation of the desired concentration. After 2 days, the kill in % is determined. 100% means that all the larvae have been killed; 0% means that no larvae have been killed.

Experiment [2] deals with Ctenocephalides felis. In words: Ctenocephalides felis in vitro contact test with adult cat fleas. The note with it: application rate 5 μg/cm^2 (=500 g/ha), adult cat fleas dead or moribund after 48 h, read-out: efficacy. The procedure:
For the coating of the test tubes, 9 mg of active ingredient are first dissolved in 1 ml of acetone p.a. and then diluted to the desired concentration with acetone p.a. 250 μl of the solution are distributed homogeneously on the inner walls and the base of a 25 ml glass tube by turning and rocking on an orbital shaker (rocking rotation at 30 rpm for 2 h). With 900 ppm of active ingredient solution and internal surface area 44.7 cm^2, given homogeneous distribution, an area-based dose of 5 μg/cm^2 is achieved. After the solvent has evaporated off, the tubes are populated with 5-10 adult cat fleas (Ctenocephalides felis), sealed with a perforated plastic lid and incubated in a horizontal position at room temperature and ambient humidity. After 48 h, efficacy is determined. To this end, the tubes are stood upright and the fleas are knocked to the base of the tube. Fleas which remain motionless at the base or move in an uncoordinated manner are considered to be dead or moribund. […] 100% efficacy means that all the fleas were dead or moribund. 0% efficacy means that no fleas were harmed.

Experiment [3] has as its system Myzus persicae. The experiment in a line: Myzus persicae spray test. The note with it: foliar, 120 h, application rate 100 g/ha, Chinese cabbage leaf discs, after 5 days, read-out: efficacy. Here is the method:
(§1) [table] To produce a suitable active ingredient formulation, 1 part by weight of active ingredient is dissolved with the specified parts by weight of solvent and made up to the desired concentration with water containing an emulsifier concentration of 1000 ppm. To produce further test concentrations, the formulation is diluted with emulsifier-containing water. Discs of Chinese cabbage leaves (Brassica pekinensis) infested by all stages of the green peach aphid (Myzus persicae) are sprayed with an active ingredient formulation of the desired concentration. After 5 days, the efficacy in % is determined. 100% means that all the aphids have been killed; 0% means that no aphids have been killed.

Experiment [4] relates to Myzus persicae. In words: Myzus persicae oral test. The note with it: 120 h, application rate 4 ppm, after 5 days, read-out: efficacy. Here is the method: [table] To produce a suitable active ingredient formulation, 1 part by weight of active ingredient is dissolved with the stated parts by weight of solvent and made up to the desired concentration with water. 50 μl of the active ingredient formulation are transferred into microtitre plates and made up to a final volume of 200 μl with 150 μl of IPL41 insect medium (33%+15% sugar). Subsequently, the plates are sealed with parafilm, which a mixed population of green peach aphids (Myzus persicae) within a second microtitre plate is able to puncture and imbibe the solution. After 5 days, the efficacy in % is determined. 100% means that all the aphids have been killed; 0% means that no aphids have been killed.

The subject of experiment [5] is Ctenocephalides felis. In words: Ctenocephalides felis oral test. The note with it: 48 h, application rate 100 ppm in citrated cattle blood, kill after 2 days, read-out: efficacy. The procedure: Solvent: dimethyl sulfoxide To produce a suitable active ingredient formulation, 10 mg of active ingredient are mixed with 0.5 ml of dimethyl sulfoxide. Dilution with citrated cattle blood gives the desired concentration. About 20 unfed adult cat fleas (Ctenocephalides felis) are placed into a chamber which is closed at the top and bottom with gauze. A metal cylinder whose bottom end is closed with parafilm is placed onto the chamber. The cylinder contains the blood/active ingredient formulation, which can be imbibed by the fleas through the parafilm membrane. After 2 days, the kill in % is determined. 100% means that all of the fleas have been killed; 0% means that none of the fleas have been killed.

The subject of experiment [6] is Spodoptera frugiperda. In words: Spodoptera frugiperda spray test. The note with it: foliar, 168 h, application rate 100 g/ha, maize leaf discs, caterpillars, after 7 days, read-out: efficacy. The procedure: [table] To produce a suitable active ingredient formulation, 1 part by weight of active ingredient is dissolved with the specified parts by weight of solvent and made up to the desired concentration with water containing an emulsifier concentration of 1000 ppm. To produce further test concentrations, the formulation is diluted with emulsifier-containing water. Leaf discs of maize (Zea mays) are sprayed with an active ingredient formulation of the desired concentration and, after drying, populated with caterpillars of the fall armyworm (Spodoptera frugiperda). After 7 days, the efficacy in % is determined. 100% means that all the caterpillars have been killed; 0% means that no caterpillar has been killed.

The test system of experiment [7] is Phaedon cochleariae. The experiment in a line: Phaedon cochleariae spray test. The note with it: 168 h, larvae, after 7 days, read-out: efficacy; for pest or weed control at 100 g/ha: application rate 100 g/ha. Here is the method:
as §1, with “pekinensis)” for “pekinensis) infested by all stages of the green peach aphid (Myzus persicae)”, “concentration and, after drying, populated with larvae of the mustard beetle (Phaedon cochleariae).” for “concentration.”, “7” for “5”, “beetle larvae” for “aphids”

Experiment [8] relates to Tetranychus urticae. The experiment in a line: Tetranychus urticae spray test, OP-resistant. The note with it: foliar, 144 h, bean leaf discs, after 6 days, read-out: efficacy; for pest or weed control at 20 g/ha: application rate 20 g/ha; for pest or weed control at 100 g/ha: application rate 100 g/ha. Here is the method: [table] To produce a suitable active ingredient formulation, 1 part by weight of active ingredient is dissolved with the specified parts by weight of solvent and made up to the desired concentration with water containing an emulsifier concentration of 1000 ppm. To produce further test concentrations, the formulation is diluted with emulsifier-containing water. Discs of bean leaves (Phaseolus vulgaris) infested with all stages of the greenhouse red spider mite (Tetranychus urticae) are sprayed with an active ingredient formulation of the desired concentration. After 6 days, the efficacy in % is determined. 100% means that all the spider mites have been killed; 0% means that no spider mites have been killed.

For the compound `CCS(=O)(=O)c1c(-c2nc3cc(C(F)(F)F)ncc3n2C)nc(-c2ccccc2)n1C` [Example I-003], the pest or weed control at 100 ppm in experiment [1] and in experiment [5] was 100% throughout. In addition, in experiment [2], the pest or weed control at 5 µg/cm2, 500 g/ha amounted to 100%. The pest or weed control at 100 g/ha in experiment [3] stood at 90%. Also, the pest or weed control at 4 ppm in experiment [4] was determined as 100%.

Turning to `CCS(=O)(=O)c1c(-c2nc3cc(C(F)(F)F)ncc3n2C)nc(Cl)n1C(C)C` [Example I-025], the pest or weed control at 4 ppm in experiment [4] amounted to 100%. For the same compound, the pest or weed control at 100 g/ha in experiment [6] was 100%. The pest or weed control at 100 ppm in experiment [5] was 80%.

For the compound `CCS(=O)(=O)c1c(-c2nc3cc(C(F)(F)F)ncc3n2C)ncn1C` [Example I-029, 2-[5-(Ethylsulfonyl)-1-methyl-1H-imidazol-4-yl]-3-methyl-6-(trifluoromethyl)-3H-imidazo[4,5-c]pyridine], the pest or weed control at 100 ppm in experiment [1] and in experiment [5] was 95% in each case. The pest or weed control at 100 g/ha was found to be 70% in experiment [3] and 100% in experiment [7]. Further, the pest or weed control at 4 ppm in experiment [4] came out at 100%.

As for `CCS(=O)(=O)c1c(-c2nc3cc(C(F)(F)F)ncc3n2C)nc(C(=O)N(C)C)n1C` [Example I-040], the results for the pest or weed control at 100 ppm in experiment [1] and in experiment [5] were 100% and 90%, respectively. The pest or weed control at 100 g/ha in experiment [3] amounted to 100%. Also, the pest or weed control at 4 ppm in experiment [4] came to 100%.

In the case of `CCS(=O)(=O)c1c(-c2nc3cc(C(F)(F)F)ncc3n2C)nc(-c2cnn(C)c2)n1C` [Example I-042], the values for the pest or weed control at 100 g/ha in experiment [3] and in experiment [7] were 90% and 100%, respectively. Also, the pest or weed control at 4 ppm in experiment [4] is 100%. Also, the pest or weed control at 20 g/ha in experiment [8] worked out at 90%.

For `CCS(=O)(=O)c1c(-c2nc3cc(C(F)(F)F)ncc3n2C)nc(-c2c(C)nn(C)c2C)n1C` [Example I-050], the pest or weed control at 100 g/ha in experiment [3] and in experiment [8] was 90% throughout. Moreover, the pest or weed control at 4 ppm in experiment [4] is 90%.

In the case of `CCS(=O)(=O)c1c(-c2nc3cc(C(F)(F)F)ncc3n2C)nc(-c2ccc(C#N)n2C)n1C` [Example I-054], the pest or weed control at 4 ppm in experiment [4] is 90%. For the same compound, the pest or weed control at 100 g/ha in experiment [8] was determined as 100%.

Regarding `CCS(=O)(=O)c1c(-c2nc3cc(C(F)(F)F)ncc3n2C)nc(-c2cnn(C3CC3)c2)n1C` [Example I-055], the pest or weed control at 100 ppm in experiment [1] and in experiment [5] was 100% each time. For the same compound, the values for the pest or weed control at 100 g/ha in experiment [3], in experiment [8] and in experiment [7] were 90%, 90% and 100%, respectively. Moreover, in experiment [4], the pest or weed control at 4 ppm was found to be 100%.

Consider `CCS(=O)(=O)c1c(-c2nc3cc(C(F)(F)F)ncc3n2C)nc(-c2ccc(C(C)(C)C#N)cc2)n1C` [Example I-066], for which the pest or weed control at 100 g/ha is 70% in experiment [3] and 90% in experiment [8]. In addition, in experiment [4], the pest or weed control at 4 ppm worked out at 100%. Also, the pest or weed control at 500 g/ha in experiment [7] (application rate 500 g/ha) turned out to be 83%.

With `CCS(=O)(=O)c1c(-c2nc3cc(C(F)(F)F)ncc3n2C)nc(-c2ccc(C3(C#N)CC3)c(F)c2)n1C` [Example I-070], the pest or weed control at 100 g/ha is 100% in experiment [3], 100% in experiment [8], 100% in experiment [7] and 83% in experiment [6]. In experiment [4], the pest or weed control at 4 ppm was 100%.

As to `CCS(=O)(=O)c1c(-c2nc3cc(C(F)(F)F)ncc3n2C)nc(C2=CCC(C)CC2)n1C` (stereo not drawn) [Example I-074], the pest or weed control at 100 g/ha in experiment [3] and in experiment [8] was 90% each time.

With `CCS(=O)(=O)c1c(-c2nc3cc(C(F)(F)F)ncc3n2C)nc(-c2cccc(C(C)(C)C#N)c2)n1C` [Example I-075], the pest or weed control at 100 g/ha in experiment [3] and in experiment [8] was 90% throughout. Moreover, in experiment [4], the pest or weed control at 4 ppm is 100%.

For the compound `CCS(=O)(=O)c1c(-c2nc3cc(C(F)(F)F)ncc3n2C)nc(-c2ccc(C3(C#N)CC3)cc2C)n1C` [Example I-076], the pest or weed control at 100 g/ha in experiment [3] is 100%; in experiment [8], 90%; in experiment [7] it was 100%; in experiment [6], 100%.

Regarding `CCS(=O)(=O)c1c(-c2nc3cc(C(F)(F)F)ncc3n2C)nc(-c2cc(Cl)cc(C3(C#N)CC3)c2)n1C` [Example I-077], the pest or weed control at 100 g/ha in experiment [3] was 90%; in experiment [8] it was 100%; in experiment [7], 100%. Also, the pest or weed control at 20 g/ha in experiment [8] is 90%.

On to `CCS(=O)(=O)c1c(-c2nc3cc(C(F)(F)F)ncc3n2C)nc(-c2ccc(C#N)c(Cl)c2)n1C` [Example I-082], for which the pest or weed control at 100 g/ha in experiment [3] stood at 90%; in experiment [8] it was 100%; in experiment [7] it was 100%; in experiment [6], 83%. The pest or weed control at 4 ppm in experiment [4] came to 100%. In addition, in experiment [8], the pest or weed control at 20 g/ha came to 100%.

For the compound `CCS(=O)(=O)c1c(-c2nc3cc(C(F)(F)F)ncc3n2C)nc(C(C)C)n1C` [Example I-086], the pest or weed control at 100 g/ha in experiment [3] and in experiment [8] was 90% each time. In addition, the pest or weed control at 4 ppm in experiment [4] came to 100%.

As for `CCS(=O)(=O)c1c(-c2nc3cc(C(F)(F)F)ncc3n2C)nc(-c2cccc(C3(C#N)CC3)c2)n1C` [Example I-087], in experiment [4], the pest or weed control at 4 ppm was 100%. In addition, the pest or weed control at 20 g/ha in experiment [8] was 90%. Besides, the pest or weed control at 100 g/ha in experiment [7] and in experiment [6] was 100% each time.

As to `CCS(=O)(=O)c1c(-n2cc3ccc(C(F)(F)F)cc3n2)nc(-c2ccc(Cl)cc2)n1C` [Example I-092], the pest or weed control at 100 ppm in experiment [1] was found to be 100%. In experiment [4], the pest or weed control at 4 ppm worked out at 100%. Further, the pest or weed control at 100 g/ha amounted to 100% in experiment [8], 67% in experiment [7] and 100% in experiment [6].

Values taken from patent US11083199B2, “Heterocycle derivatives as pesticides” (Bayer Aktiengesellschaft, priority 2017, dated 2021).
